Reference: patent publication US6365613B1, “Fungicidal mixtures” (BASF Aktiengesellschaft, priority 1997, dated 2002)

Tested on: Botrytis cinerea
Experiment: Activity against Botrytis cinerea on bell peppers (fruit disks, protective spray)
Assay type: in vivo
Conditions: single active ingredient, green bell pepper disks, 4 days at 18° C.
Experimental: Activity against Botrytis cinerea on bell peppers
Disks of green bell peppers were sprayed to runoff point with an aqueous preparation of active ingredient which had been prepared from a stock solution comprising 10% of active compound, 63% of cyclohexanone and 27% of emulsifier. 2 hours after the spray coating had dried on, the fruit disks were inoculated with a spore suspension of Botrytis cinerea containing 1.7×10^6 spores per ml of a 2% strength Biomalz solution. The inoculated fruit disks were subsequently incubated in humid chambers at 18° C. for 4 days. The Botrytis infection on the diseased fruit disks was then evaluated visually.
Evaluation was carried out by determining the infected leaf areas in percent. These percentages were converted into efficacies. The efficacy (E) was calculated as follows using Abbot's formula: […]
α corresponds to the fungal infection of the treated plants in % and β corresponds to the fungal infection of the untreated (control) plants in % An efficacy of 0 means that the infection level of the treated plants corresponds to that of the untreated control plants; an efficacy of 100 means that the treated plants were not infected.
The expected efficacies of the mixtures of the active ingredients were determined using Colby's formula [R. S. Colby, weeds 15 (1967), 20-22] and compared with the observed efficacies.
Colby's formula: E=x+y−x·y/100
E expected efficacy, expressed in % of the untreated control, when using the mixture of the active ingredients A and B at the concentrations a and b x efficacy, expressed in % of the untreated control, when using the active ingredient A at the concentration a y efficacy, expressed in % of the untreated control, when using the active ingredient B at the concentration b

SMILES	Efficacy in % of the untreated control (6.3 ppm in the spray liquor) [%]	Efficacy in % of the untreated control (12.5 ppm in the spray liquor) [%]	Efficacy in % of the untreated control (25 ppm in the spray liquor) [%]	Efficacy in % of the untreated control (50 ppm in the spray liquor) [%]
CCCCNC(=O)n1c(NC(=O)OC)nc2ccccc21 [Comp. IIa, methyl 1-(butylcarbamoyl)benzimidazol-2-ylcarbamate, reference compound]	10	20		
COC(=O)NC(=S)Nc1ccccc1NC(=S)NC(=O)OC [Comp. IIf, dimethyl 4,4′-(o-phenylene)bis(3-thioallophanate), reference compound]		0	0	20
CO/N=C(/C(=O)OC)c1ccccc1COc1ccccc1C [Compound Ia]	20	30	30	50
CO/N=C(/C(=O)OC)c1ccccc1COc1cc(C)ccc1C [Compound Ic]		50	80	
